Several values for one entry are separate records, joined by “and”; a condition that tells them apart may be missing. Equal values may be shown once. Read-outs that look alike come from different tables or passages of the source.
How the values were obtained:
Assay in all cases: NIMH PDSP radioligand binding, membranes
5-HT3 = 5-HT3 (Homo sapiens, UniProt P46098)
Description: (§1) Radioligand binding assays with membrane preparations to determine binding affinity were carried out as outlined before[540] and by the National Institute of Mental Health’s Psychoactive Drug Screening Program (NIMH PDSP) (https://pdsp.unc.edu/), Contract # HHSN-271–2013–00017-C. The NIMH PDSP is Directed by B.L.R. at the University of North Carolina at Chapel Hill, Chapel Hill, NC, and Project Officer Jamie Driscoll at NIMH, Bethesda, MD.

CB1 = CB1 (Homo sapiens, UniProt P21554)
Description: as §1

Alpha2B = target: T1, Alpha2B (Homo sapiens, UniProt P18089)
T1 construct: NIMH PDSP
Description: as §1

H4 = H4 (Homo sapiens, UniProt Q9H3N8)
Description: as §1

5-HT2B = 5-HT2B (Homo sapiens, UniProt P41595)
Description: as §1

KOR = KOR (Homo sapiens, UniProt P41145)
Description: as §1

Alpha 1B = target: T2, Alpha 1B (Homo sapiens, UniProt P35368)
T2 construct: NIMH PDSP
T2 sequence (P35368 1-520): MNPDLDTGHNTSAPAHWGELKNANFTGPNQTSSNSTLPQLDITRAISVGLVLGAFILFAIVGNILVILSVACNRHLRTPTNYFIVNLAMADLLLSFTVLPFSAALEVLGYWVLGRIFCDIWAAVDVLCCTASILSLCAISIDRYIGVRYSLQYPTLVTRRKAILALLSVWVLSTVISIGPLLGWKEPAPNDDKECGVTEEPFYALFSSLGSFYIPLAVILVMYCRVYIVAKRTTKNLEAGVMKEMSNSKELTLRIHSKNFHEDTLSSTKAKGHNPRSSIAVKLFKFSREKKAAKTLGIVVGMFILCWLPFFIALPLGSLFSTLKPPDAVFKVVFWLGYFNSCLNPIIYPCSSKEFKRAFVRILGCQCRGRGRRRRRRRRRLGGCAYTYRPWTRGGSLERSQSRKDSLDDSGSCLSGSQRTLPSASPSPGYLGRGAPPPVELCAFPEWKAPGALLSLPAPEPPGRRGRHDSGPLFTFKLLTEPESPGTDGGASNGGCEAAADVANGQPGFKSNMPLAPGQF
Description: as §1

Alpha2A = target: T3, Alpha2A (Homo sapiens, UniProt P08913)
T3 construct: NIMH PDSP
Description: as §1

Beta1 = target: T4, Beta1 (Homo sapiens, UniProt P08588)
T4 construct: NIMH PDSP
Description: as §1

Alpha1D = target: T5, Alpha1D (Homo sapiens, UniProt P25100)
T5 construct: NIMH PDSP
T5 sequence (P25100 1-572): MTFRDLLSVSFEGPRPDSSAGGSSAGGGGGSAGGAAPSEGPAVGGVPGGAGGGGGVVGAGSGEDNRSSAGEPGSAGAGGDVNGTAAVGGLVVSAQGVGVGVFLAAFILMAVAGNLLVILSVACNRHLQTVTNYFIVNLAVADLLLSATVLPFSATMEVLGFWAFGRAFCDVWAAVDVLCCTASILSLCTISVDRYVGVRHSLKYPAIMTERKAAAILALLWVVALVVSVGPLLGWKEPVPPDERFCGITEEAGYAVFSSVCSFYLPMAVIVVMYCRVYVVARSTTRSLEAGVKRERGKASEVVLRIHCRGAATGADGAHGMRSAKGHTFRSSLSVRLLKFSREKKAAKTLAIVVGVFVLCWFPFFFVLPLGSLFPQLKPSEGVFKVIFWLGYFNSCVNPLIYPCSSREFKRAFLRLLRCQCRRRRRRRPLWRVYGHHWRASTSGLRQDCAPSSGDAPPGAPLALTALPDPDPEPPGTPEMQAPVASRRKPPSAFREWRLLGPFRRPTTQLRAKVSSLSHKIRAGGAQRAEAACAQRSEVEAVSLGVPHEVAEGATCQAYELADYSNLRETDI
Description: as §1

M2 = M2 (Homo sapiens, UniProt P08172)
Description: as §1

D2 = D2 (Homo sapiens, UniProt P14416)
Description: as §1

H3 = H3 (Homo sapiens, UniProt Q9Y5N1)
Description: as §1

MOR = MOR (Homo sapiens, UniProt P35372)
Description: as §1

M4 = M4 (Homo sapiens, UniProt P08173)
Description: as §1

D1 = D1 (Homo sapiens, UniProt P21728)
Description: as §1

5-HT1E = 5-HT1E (Homo sapiens, UniProt P28566)
Description: as §1

D3 = D3 (Homo sapiens, UniProt P35462)
Description: as §1

5-HT2A = 5-HT2A (Homo sapiens, UniProt P28223)
Description: as §1

M1 = M1 (Homo sapiens, UniProt P11229)
Description: as §1

H1 = H1 (Homo sapiens, UniProt P35367)
Description: as §1

[1] = read-out: Ki #1-#5 (individual assays)
[2] = read-out: pKi (mean) (converted)
[3] = read-out: log Ki (individual assays) (converted)

T3 sequence (P08913 whole entry): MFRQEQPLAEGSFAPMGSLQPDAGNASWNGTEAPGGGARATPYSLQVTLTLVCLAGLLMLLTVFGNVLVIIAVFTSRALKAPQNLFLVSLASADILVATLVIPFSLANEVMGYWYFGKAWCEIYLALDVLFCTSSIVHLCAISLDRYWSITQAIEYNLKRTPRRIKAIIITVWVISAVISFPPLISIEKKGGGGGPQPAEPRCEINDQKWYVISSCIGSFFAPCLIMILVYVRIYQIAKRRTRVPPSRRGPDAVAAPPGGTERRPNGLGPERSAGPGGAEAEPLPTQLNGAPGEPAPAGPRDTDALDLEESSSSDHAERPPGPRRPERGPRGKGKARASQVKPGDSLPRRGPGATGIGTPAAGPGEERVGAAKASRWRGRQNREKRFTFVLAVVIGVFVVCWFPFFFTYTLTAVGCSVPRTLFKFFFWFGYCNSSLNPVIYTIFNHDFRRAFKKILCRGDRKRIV
T1 sequence (P18089 whole entry): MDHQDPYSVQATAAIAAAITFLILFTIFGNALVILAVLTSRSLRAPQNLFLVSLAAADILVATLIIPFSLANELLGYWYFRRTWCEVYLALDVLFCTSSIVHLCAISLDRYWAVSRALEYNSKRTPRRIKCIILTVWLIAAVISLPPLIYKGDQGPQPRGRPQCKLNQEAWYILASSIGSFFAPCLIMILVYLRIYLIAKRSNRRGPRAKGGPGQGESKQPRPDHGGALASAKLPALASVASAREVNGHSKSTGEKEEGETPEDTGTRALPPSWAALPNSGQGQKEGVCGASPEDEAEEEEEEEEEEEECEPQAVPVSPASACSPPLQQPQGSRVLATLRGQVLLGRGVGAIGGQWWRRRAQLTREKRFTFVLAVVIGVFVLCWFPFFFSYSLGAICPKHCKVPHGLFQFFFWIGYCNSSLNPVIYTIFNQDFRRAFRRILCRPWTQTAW
M4, sequence (P08173 whole entry): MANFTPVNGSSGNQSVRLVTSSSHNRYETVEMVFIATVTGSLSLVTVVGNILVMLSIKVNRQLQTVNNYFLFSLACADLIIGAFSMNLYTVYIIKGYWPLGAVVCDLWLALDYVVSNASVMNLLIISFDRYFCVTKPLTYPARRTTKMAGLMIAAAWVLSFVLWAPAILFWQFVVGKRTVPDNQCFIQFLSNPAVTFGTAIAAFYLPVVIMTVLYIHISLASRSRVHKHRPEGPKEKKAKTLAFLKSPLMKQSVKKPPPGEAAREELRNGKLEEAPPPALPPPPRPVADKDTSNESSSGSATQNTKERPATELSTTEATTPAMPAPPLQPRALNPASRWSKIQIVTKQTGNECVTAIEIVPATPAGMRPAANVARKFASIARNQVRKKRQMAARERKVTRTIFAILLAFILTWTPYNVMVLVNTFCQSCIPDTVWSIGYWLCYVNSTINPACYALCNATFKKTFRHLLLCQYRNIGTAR
KOR, sequence (P41145 whole entry): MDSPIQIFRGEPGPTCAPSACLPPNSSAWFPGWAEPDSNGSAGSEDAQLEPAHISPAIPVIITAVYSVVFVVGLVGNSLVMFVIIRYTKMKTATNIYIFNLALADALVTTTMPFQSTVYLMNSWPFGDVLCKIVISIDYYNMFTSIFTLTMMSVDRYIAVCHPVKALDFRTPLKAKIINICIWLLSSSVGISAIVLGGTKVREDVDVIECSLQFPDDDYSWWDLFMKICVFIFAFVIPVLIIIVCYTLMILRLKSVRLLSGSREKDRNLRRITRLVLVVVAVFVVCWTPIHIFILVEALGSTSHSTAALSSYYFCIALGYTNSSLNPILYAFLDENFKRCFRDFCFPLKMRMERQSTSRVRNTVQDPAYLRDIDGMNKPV
5-HT3, sequence (P46098 24-478, species assumed): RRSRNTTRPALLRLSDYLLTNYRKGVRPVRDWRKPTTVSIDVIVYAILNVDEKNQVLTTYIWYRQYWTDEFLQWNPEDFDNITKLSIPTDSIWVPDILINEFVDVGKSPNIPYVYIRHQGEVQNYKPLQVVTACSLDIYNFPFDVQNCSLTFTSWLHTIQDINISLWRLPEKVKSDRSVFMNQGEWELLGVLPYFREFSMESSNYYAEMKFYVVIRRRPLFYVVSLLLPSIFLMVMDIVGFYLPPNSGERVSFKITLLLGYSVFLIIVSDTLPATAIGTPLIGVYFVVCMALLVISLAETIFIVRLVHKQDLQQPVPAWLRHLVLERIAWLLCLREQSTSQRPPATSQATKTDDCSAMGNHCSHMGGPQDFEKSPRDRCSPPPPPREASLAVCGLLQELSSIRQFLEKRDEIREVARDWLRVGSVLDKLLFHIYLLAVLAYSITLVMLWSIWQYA
H1, sequence (P35367 whole entry): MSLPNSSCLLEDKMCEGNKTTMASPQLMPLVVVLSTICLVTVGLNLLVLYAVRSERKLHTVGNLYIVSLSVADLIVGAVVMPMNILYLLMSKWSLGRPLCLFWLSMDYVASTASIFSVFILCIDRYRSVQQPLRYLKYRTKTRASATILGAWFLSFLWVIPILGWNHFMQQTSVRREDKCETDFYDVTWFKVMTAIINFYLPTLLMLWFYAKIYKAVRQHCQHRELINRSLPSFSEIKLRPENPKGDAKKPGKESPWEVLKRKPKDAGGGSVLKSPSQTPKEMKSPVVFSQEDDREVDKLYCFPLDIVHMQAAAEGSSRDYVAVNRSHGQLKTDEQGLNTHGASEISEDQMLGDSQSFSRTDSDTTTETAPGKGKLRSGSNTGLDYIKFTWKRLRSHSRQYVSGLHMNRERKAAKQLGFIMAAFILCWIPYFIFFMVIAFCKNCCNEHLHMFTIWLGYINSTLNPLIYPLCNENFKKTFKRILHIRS
MOR, sequence (P35372 whole entry): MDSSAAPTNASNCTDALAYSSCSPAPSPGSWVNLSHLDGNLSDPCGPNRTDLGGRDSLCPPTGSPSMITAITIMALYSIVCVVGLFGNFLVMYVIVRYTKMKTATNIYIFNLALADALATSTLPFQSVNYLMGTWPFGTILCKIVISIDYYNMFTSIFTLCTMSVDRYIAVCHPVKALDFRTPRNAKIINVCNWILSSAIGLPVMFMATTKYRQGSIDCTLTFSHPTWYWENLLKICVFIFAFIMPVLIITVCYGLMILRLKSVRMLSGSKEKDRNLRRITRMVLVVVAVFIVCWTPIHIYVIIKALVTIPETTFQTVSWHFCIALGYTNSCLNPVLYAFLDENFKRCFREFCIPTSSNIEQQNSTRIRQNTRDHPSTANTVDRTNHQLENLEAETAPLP
H4, sequence (Q9H3N8 whole entry): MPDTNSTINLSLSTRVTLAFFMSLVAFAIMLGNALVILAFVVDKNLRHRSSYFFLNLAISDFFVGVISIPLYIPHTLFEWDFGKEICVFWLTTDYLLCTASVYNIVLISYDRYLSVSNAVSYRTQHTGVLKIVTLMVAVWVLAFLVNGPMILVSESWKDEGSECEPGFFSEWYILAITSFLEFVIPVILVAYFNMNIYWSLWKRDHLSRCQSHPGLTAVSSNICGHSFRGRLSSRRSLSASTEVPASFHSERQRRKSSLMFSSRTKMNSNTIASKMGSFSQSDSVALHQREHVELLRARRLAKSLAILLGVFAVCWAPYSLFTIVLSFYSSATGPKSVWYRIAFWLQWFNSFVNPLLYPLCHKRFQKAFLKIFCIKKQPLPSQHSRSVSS
D2, sequence (P14416 whole entry): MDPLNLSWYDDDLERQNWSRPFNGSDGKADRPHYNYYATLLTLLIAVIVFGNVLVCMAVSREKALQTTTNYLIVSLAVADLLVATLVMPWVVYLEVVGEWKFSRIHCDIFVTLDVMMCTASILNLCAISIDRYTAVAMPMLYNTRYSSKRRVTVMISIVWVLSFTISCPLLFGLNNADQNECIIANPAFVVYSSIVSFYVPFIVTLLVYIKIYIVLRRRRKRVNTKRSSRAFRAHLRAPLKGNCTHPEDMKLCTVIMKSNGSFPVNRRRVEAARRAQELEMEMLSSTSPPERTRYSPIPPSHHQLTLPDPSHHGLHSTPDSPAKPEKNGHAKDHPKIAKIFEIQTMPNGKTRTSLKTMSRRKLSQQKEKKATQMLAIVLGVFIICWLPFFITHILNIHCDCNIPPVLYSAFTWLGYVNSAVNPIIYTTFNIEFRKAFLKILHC
5-HT2B, sequence (P41595 whole entry, species assumed): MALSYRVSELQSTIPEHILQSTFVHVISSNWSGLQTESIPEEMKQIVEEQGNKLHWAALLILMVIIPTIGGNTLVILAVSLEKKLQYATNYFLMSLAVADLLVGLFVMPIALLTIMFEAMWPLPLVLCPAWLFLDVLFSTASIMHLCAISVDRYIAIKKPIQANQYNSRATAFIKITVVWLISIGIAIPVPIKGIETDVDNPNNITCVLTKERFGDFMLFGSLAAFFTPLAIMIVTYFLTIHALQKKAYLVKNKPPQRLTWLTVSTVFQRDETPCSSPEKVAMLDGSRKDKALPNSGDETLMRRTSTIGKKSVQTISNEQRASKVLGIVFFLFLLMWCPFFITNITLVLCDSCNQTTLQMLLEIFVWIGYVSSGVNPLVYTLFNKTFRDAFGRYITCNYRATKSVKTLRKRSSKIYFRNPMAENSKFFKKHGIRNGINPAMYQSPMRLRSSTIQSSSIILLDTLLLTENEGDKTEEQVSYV
5-HT2A, sequence (P28223 whole entry, species assumed): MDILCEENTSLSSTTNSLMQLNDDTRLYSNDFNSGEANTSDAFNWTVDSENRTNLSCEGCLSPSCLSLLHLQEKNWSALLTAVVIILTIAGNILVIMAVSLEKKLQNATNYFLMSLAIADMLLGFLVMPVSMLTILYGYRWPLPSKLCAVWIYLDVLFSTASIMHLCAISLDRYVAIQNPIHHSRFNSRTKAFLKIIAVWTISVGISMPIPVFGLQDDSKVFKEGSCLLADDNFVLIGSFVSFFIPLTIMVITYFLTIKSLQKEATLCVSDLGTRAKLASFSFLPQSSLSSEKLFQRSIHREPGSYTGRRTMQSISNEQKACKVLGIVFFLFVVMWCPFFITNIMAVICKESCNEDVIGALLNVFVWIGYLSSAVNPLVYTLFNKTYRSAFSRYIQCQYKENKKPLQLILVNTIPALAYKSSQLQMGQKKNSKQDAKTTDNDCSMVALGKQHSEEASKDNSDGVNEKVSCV

c1ccc2c(c1)N=C(N1CCNCC1)c1ccccc1N2 [C21, 11-(1-piperazinyl)-5H-dibenzo[b,e][1,4]diazepine]
Ki (5-HT3; read-out: Ki): 360 nM | Ki (5-HT3; [1]): 858 nM and 321 nM and 169 nM | Ki (CB1; read-out: Ki): > 10000 nM | Ki (CB1; [1]): > 10000 nM | Ki (Alpha2B; read-out: Ki): 474 nM | Ki (Alpha2B; [1]): 1520 nM and 157 nM and 247 nM and 857 nM | Ki (H4; read-out: Ki): > 10000 nM | Ki (H4; [1]): > 10000 nM | Ki (H4; [2]): > 10000 nM | Ki (5-HT2B; read-out: Ki): 32.7 nM | Ki (5-HT2B; [3]): 26.9 nM and 38 nM and 28.2 nM and 39.8 nM | Ki (5-HT2B; [2]): 33.1 nM | Ki (KOR; read-out: Ki): 2980 nM | Ki (KOR; [1]): 6690 nM and 2680 nM and 1470 nM | log Ki (individual assays) (Alpha 1B): <5 | Ki (Alpha 1B; read-out: Ki): > 10000 nM | Ki (Alpha 1B; [1]): > 10000 nM | Ki (Alpha2A; read-out: Ki): 1770 nM | Ki (Alpha2A; [1]): 4750 nM and 809 nM and 1440 nM | Ki (Beta1; read-out: Ki): > 10000 nM | Ki (Beta1; [1]): > 10000 nM | log Ki (individual assays) (Alpha1D): <5 | Ki (Alpha1D; read-out: Ki): > 10000 nM | Ki (Alpha1D; [1]): > 10000 nM | Ki (M2; read-out: Ki): 146 nM | Ki (M2; [1]): 246 nM and 139 nM and 91 nM | Ki (D2; read-out: Ki): 4570 nM | Ki (D2; [1]): 2750 nM and 4740 nM and 7340 nM | Ki (H3; read-out: Ki): 4940 nM | Ki (H3; [1]): 6850 nM and 4580 nM and 3850 nM | Ki (MOR; read-out: Ki): 3880 nM | Ki (MOR; [1]): 2230 nM and 4820 nM and 5430 nM | Ki (M4; read-out: Ki): 1880 nM | Ki (M4; [1]): 1560 nM and 2440 nM and 3020 nM and 734 nM and 2800 nM | Ki (D1; read-out: Ki): 479 nM | Ki (D1; [1]): 525 nM and 316 nM and 661 nM | Ki (5-HT1E; read-out: Ki): 206 nM | Ki (5-HT1E; [1]): 325 nM and 263 nM and 68 nM and 117 nM and 547 nM | Ki (D3; read-out: Ki): 870 nM | Ki (D3; [1]): 1520 nM and 1160 nM and 372 nM | Ki (5-HT2A; read-out: Ki): 44.3 nM | Ki (5-HT2A; [1]): 58.9 nM and 51 nM | Ki (5-HT2A; [3]): 28.8 nM | Ki (M1; read-out: Ki): 548 nM | Ki (M1; [1]): 693 nM and 303 nM and 785 nM | Ki (H1; [1]): 4.5 nM | Ki (H1; [3]): 3.47 nM and 2.4 nM | Ki (H1; [2]): 3.39 nM
